From patent US5604236A, “Beta-carboline thromboxane synthase inhibitors” (Eli Lilly and Company, priority 1995, dated 1997)
Each block holds one compound with its values, some of them ahead of it.

Tests used:
[1] = test system: 6-keto-PGF1a (prostacyclin generation); conditions: stated as well known; result in words; cited from earlier work
[2] = target: T1, thromboxane synthase (Homo sapiens, UniProt P24557); experiment: Thromboxane Synthase Inhibition (TSI) Test, serum TXB2 by radioimmunoassay in human whole blood; assay type: cell-based; conditions: fresh whole human blood, 30 min at 37° C., then CaCl2 1 hour; TXB2 RIA; read-out: IC50 (concentration of compound required to reduce thromboxane generation to 50% of that obtained with vehicle alone)
T1 construct: incubated with fresh whole human blood, that had been anticoagulated with 0.38% trisodium citrate; from tissue; host or cells: fresh whole human blood (citrated, recalcified to clot)
T1 sequence (P24557 1-533): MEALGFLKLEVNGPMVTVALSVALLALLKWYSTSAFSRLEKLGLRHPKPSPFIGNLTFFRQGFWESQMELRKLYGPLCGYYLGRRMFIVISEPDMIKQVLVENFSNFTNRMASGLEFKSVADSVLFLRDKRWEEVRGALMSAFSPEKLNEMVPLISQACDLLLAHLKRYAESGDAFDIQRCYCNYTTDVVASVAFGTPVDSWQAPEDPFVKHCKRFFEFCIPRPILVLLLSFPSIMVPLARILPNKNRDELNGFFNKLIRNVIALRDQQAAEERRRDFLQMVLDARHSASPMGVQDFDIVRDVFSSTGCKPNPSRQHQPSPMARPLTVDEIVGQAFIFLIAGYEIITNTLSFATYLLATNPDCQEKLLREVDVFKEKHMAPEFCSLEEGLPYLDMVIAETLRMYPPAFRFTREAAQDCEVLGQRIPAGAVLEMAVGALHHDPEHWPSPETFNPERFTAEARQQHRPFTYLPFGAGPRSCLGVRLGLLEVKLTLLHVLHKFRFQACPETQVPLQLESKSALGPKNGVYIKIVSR
Protocol: (§1) The ability of the compounds of the present invention to be an effective thromboxane synthase inhibitors were evaluated in the following Thromboxane Synthase Inhibition (TSI) Assay with the results shown in Table 2 below: The test compounds were dissolved in dimethylsulfoxide. The compound solutions were incubated with fresh whole human blood, that had been anticoagulated with 0.38% trisodium citrate, for 30 minutes at 37° C. After 30 minutes, 0.025 ml of 0.5M calcium chloride solution was added to each 1 ml of blood and further incubated for one hour at 37° C. Serum was prepared by centrifugation of the blood at 2000×g for 15 minutes in a Beckman table top centrifuge. Serum TXB2 and 6-keto-PGF1a, the stable metabolites of and markers of synthesis of TXA2 and prostacyclin respectively, were measured by radioimmunoassay by commonly used test methods (see, Refs.,1 & 2 below). Results from the radioimmunoassay of TXB2 were used to calculate the IC50 (concentration of compound required to reduce thromboxane generation to 50% of that obtained with vehicle alone).

[3] = test system: 6-keto-PGF1a (prostacyclin generation); experiment: Serum 6-keto-PGF1a (prostacyclin generation) by radioimmunoassay in human whole blood; assay type: cell-based; conditions: for Serum 6-keto-PGF1a: vehicle 2.43
Protocol: as §1, with “The” for “The ability of the compounds of the present invention to be an effective thromboxane synthase inhibitors were evaluated in the following Thromboxane Synthase Inhibition (TSI) Assay with the results shown in Table 2 below: The”
Data determined from the radioimmunoassay of 6-keto-PGF1a (reflecting prostacyclin generation) allowed a determination of the specificity of the compound of example 1 for the inhibition of thromboxane synthase as indicated by increased levels of 6-keto-PGF1a relative to the less specific inhibition of cyclooxygenase by aspirin.

[4] = test system: TXB2; experiment: Serum TXB2 levels ex vivo after oral or i.v. administration to rats; assay type: in vivo; conditions: rat
Protocol: The blood was allowed to clot in glass tubes for 1 hour at 37° C. Serum was collected after sedimentation of the clot by centrifugation at 2000×g for 15 minutes in a Beckman table top centrifuge. The levels of TXB2 were measured in the serum by radioimmunoassay.

SMILES: CC(=O)Oc1ccccc1C(=O)O [Aspirin]
generation of 6-keto-PGF1a [1]: completely inhibit

SMILES: O=C(O)CCCCCn1c2ccccc2c2ccncc21 [Example 1, 9H-Pyrido(3,4-β)indole-9-hexanoic acid]
IC50 [2]: 0.053 µM
Serum 6-keto-PGF1a ([3]; 0.001 μM): 3.01 ng/mL
Serum 6-keto-PGF1a ([3]; 0.01 μM): 5.09 ng/mL
Serum 6-keto-PGF1a ([3]; 0.1 μM): 7.07 ng/mL
Serum 6-keto-PGF1a ([3]; 1 μM): 7.71 ng/mL
Serum 6-keto-PGF1a ([3]; 10 μM): 7.82 ng/mL
effect on human serum 6-keto-PGF1a levels ([3]; human serum, result in words): dose-dependent stimulatory effect
Serum TXB2 (% control) ([4]; i.v., 0.01 mg/kg, 15 minutes): 69 % control
Serum TXB2 (% control) ([4]; i.v., 0.1 mg/kg, 15 minutes): 14 % control
Serum TXB2 (% control) ([4]; i.v., 1 mg/kg, 15 minutes): 4 % control
availability by oral and i.v. routes ([4]; inferred from decreased serum TXB2, result in words): availability of the compounds by both oral and i.v. routes
Serum TXB2 (% control) ([4]; oral, 0.1 mg/kg, one hour): 54 % control
Serum TXB2 (% control) ([4]; oral, 1 mg/kg, one hour): 16 % control
Serum TXB2 (% control) ([4]; oral, 10 mg/kg, one hour): 2 % control
Serum TXB2 (% control) ([4]; oral, 100 mg/kg, one hour): 1 % control

SMILES: O=C(O)CCCCn1c2ccccc2c2ccncc21 [Example 3, 9H-Pyrido (3,4-β)indole-9-pentanoic acid]
IC50 [2]: 0.1 µM

SMILES: O=C(O)CCCCCn1c2ccc(Br)cc2c2ccncc21 [Example 5, 6-Bromo-9H-pyrido(3,4-β)indole-9-hexanoic acid]
IC50 [2]: 0.068 µM

SMILES: Cc1ccc2c(c1)c1ccncc1n2CCCCCC(=O)O [Example 6, 6-Methyl-9H-pyrido(3,4-β)indole-9-hexanoic acid]
IC50 [2]: 0.031 µM

SMILES: O=C(O)CCCCCn1c2ccc([N+](=O)[O-])cc2c2ccncc21 [Example 8, 6-Nitro-9H-pyrido(3,4-β)indole-9-hexanoic acid]
IC50 [2]: 0.091 µM

Further compounds by falling IC50 [2], results first:

IC50 [2]: 19 µM
SMILES: O=C(O)CCCn1c2ccccc2c2ccncc21 [Example 2, 9H-Pyrido (3,4-β)indole-9-butanoic acid]

IC50 [2]: 0.21 µM
SMILES: O=C(O)CCCCCCn1c2ccccc2c2ccncc21 [Example 4]

IC50 [2]: 0.049 µM
SMILES: COc1ccc2c(c1)c1ccncc1n2CCCCCC(=O)O [Example 7, 6-Methoxy-9H-pyrido(3,4-β)indole-9-hexanoic acid]
